Measured values published in patent publication US6107070A, “Human manganese superoxide dismutase proteins” (University of Florida, priority 1998, dated 2000).

Biological target: T1, human manganese superoxide dismutase (hMn SOD), wild type, SEQ ID NO:2 (Homo sapiens, UniProt P04179)
T1 construct: where it is then cleaved off leaving the mature protein
T1 sequence (P04179 25-222): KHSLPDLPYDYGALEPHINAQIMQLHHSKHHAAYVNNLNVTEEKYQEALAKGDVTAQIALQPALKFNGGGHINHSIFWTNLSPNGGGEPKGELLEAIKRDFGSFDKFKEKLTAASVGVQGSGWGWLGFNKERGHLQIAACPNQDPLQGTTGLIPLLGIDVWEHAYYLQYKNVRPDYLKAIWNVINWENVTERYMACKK
Test: Disproportionation of superoxide by wild type hMnSOD, Example 3 (Tables 4 and 5), 20° C.
Type: biochemical
Method: Experiments were based on the stabilization of KO2 in aprotic solvent and the subsequent large dilution of this solution by an aqueous solution of enzyme in a stopped-flow apparatus, as described by McClune and Fee (1978). KO2 was dissolved in a mixture of dimethyl sulfoxide and […] (2:1 by volume; Aldrich, spectrophotometric grade) with solubility of KO2 enhanced with 18-crown-6 (Valentine and Curtis, 1975). The stopped-flow spectrophotometer (Kinetic Instruments, Ann Arbor, Mich.) was capable of efficient mixing of this solution with an acqueous solution of enzyme in buffer with a dead time between 1.5 and 2.0 ms. One drive syringe (capacity 50 μl) contained the aprotic solution of O2. This was diluted fifty-fold by the contents of a second syringe (capacity 2.5 ml) which contained enzyme, EDTA, and buffer. The decay of superoxide in initial velocity experiments and progress curves was monitored by its absorption at 250 to 300 nm. Stopped-flow experiments were carried out at […]. Four or more kinetic traces were averaged to reduce noise. Steady-state parameters were obtained by least-squares analysis of such data (Leatherbarrow (1987) "Enzfitter: a nonlinear regression data analysis program for the IBM PC" Elsevier BIOSOFT, Cambridge).
In the present study, several novel hMnSOD proteins containing substitutions of His 30 (referring to the amino acid sequence of SEQ ID NO:2) were prepared by PCR site directed mutagenesis and purified by column chromatography, as described in the Materials and Methods section above, and as also described by Hsu et al. (1996) J. Biol. Chem. 271: 1768; and Hsieh et al. (1998) Biochemistry 37: 4731. In particular, His 30 was substituted with each of Ala, Asn, Ser and Gln. The resulting novel hMnSOD proteins containing a His 30 substitution were then assayed for enzymatic activity and product inhibition at 20° C. by measuring the absorbance of superoxide at 250 nm using stopped-flow spectrophotometry, as described above in the Materials and Methods section. […]

[1] = Table 4, 20° C., pH 9.4 per footnote

With `[O]O` [superoxide] the kcat [1] was 40 ms^.1, the “kcat /Km” value [1] was 800 μM^.1 S^.1 and the “ko /[E] (rate constant for the zero-order region of catalysis)” value (Table 5, pH 9.6, 20° C.) was 500 S^.1.
